# Measured values reported in PMC5458052 (Nature Communications, 2017).
# “And” between values parts separate entries of the source, which are not always exact repeats. Equal entries are not always repeated. Where two headings read alike, the source gives them in different places.
# Assays:
# [1] = tested on: major human CYP450s (all isoforms together); test: in vitro
# [2] = Dog PK, compartmental analysis
# [3] = Rat blood stability in vitro; conditions: male, Sprague Dawley, freshly collected whole blood
# Sigma 1 receptors = target: T1, Sigma 1 receptors (Homo sapiens, UniProt Q99720); test: CEREP radioligand binding screen, Sigma 1
# T1 construct: CEREP
# T1 sequence (Q99720 whole entry): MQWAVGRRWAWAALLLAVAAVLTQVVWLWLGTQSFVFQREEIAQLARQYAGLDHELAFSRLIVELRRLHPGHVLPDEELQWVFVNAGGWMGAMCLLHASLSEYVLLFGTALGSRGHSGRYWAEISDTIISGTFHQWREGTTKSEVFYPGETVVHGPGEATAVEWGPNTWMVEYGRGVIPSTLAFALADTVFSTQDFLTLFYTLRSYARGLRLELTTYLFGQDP
# [4] = Single rising oral dose MTD study in rats; conditions: both sexes, Sprague-Dawley, rat, in vivo; single oral administration; read-out: maximum-tolerated dose (MTD)
# [5] = Mouse PK, compartmental analysis
# [6] = Metabolic stability in dog liver microsomes; format: in vitro ADME; conditions: substrate 1 µM
# [7] = Metabolic stability and metabolite profile in rat liver microsomes; format: in vitro ADME
# P. berghei [8] = tested on: P. berghei; design: species or system Plasmodium berghei
# Nav1.5 channel = Nav1.5 channel (Homo sapiens, UniProt Q14524); test: Nav1.5 electrophysiology assay (IonWorks HT, CHO cells); format: cell-based; conditions: at >100 μM
# Sequence of Nav1.5 channel (Q14524 whole entry): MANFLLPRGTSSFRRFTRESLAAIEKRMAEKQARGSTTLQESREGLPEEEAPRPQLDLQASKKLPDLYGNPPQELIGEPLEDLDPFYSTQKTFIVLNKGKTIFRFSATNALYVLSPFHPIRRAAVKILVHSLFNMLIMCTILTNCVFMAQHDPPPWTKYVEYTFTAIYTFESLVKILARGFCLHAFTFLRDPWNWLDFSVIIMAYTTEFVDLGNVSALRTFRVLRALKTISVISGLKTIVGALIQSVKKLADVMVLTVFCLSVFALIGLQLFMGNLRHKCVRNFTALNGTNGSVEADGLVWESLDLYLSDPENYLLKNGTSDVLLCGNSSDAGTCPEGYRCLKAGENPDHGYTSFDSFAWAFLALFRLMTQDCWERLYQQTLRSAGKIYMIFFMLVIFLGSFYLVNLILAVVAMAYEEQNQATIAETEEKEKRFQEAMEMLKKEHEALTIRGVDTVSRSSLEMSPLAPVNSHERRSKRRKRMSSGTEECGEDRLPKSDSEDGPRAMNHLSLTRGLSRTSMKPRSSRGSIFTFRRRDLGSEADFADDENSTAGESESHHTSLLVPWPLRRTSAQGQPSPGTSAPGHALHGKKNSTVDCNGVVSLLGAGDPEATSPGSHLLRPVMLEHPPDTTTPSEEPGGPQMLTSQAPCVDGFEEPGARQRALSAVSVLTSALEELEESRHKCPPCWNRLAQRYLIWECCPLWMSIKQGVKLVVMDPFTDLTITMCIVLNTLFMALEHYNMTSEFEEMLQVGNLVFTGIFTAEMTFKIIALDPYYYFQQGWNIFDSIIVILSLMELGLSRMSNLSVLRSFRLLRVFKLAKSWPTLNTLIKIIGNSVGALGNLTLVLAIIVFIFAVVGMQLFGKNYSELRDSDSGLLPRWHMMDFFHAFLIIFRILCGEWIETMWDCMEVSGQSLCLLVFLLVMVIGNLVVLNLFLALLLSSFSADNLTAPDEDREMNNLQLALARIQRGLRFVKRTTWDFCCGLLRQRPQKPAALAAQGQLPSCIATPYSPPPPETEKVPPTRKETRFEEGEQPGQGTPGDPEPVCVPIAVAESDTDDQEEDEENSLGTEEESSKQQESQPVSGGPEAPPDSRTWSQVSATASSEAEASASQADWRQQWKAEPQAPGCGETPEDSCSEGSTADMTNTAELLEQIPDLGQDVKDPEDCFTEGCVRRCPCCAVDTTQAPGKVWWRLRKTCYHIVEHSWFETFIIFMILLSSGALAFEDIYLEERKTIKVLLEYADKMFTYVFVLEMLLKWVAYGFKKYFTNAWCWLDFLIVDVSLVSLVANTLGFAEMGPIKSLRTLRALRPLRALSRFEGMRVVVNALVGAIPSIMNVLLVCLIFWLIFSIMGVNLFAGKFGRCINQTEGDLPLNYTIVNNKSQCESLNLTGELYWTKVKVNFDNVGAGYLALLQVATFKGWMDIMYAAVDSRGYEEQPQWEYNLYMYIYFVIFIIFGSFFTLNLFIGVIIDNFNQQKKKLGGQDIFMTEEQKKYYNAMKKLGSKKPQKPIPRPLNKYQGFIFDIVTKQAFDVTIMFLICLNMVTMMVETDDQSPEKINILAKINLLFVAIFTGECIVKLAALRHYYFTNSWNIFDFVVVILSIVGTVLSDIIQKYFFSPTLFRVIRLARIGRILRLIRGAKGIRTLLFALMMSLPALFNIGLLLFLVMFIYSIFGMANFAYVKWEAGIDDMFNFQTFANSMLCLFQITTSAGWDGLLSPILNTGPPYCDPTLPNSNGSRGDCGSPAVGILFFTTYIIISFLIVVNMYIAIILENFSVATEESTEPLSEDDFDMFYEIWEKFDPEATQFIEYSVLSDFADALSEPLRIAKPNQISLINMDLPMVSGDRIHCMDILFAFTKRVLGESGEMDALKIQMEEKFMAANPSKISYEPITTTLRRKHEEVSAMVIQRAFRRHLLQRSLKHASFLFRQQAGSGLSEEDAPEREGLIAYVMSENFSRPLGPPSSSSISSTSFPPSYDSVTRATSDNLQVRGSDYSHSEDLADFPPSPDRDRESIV
# [9] = tested on: African variant G6PD deficient human red blood cells (huRBC); conditions: 7 days post-treatment; E209 up to 50 mg kg^−1 day^−1 for 3 days; PQ 25 mg/kg/day for 3 days
# [10] = tested on: P. falciparum strains (sensitive and resistant); test: microbe, parasite or virus in culture; format: cell-based; conditions: Plasmodium falciparum
# [11] = tested on: P. falciparum strain 3D7A; test: In vitro parasite reduction ratio (PRR) assay; format: cell-based, Plasmodium falciparum
# in vivo [12] = conditions: rat, iv, 1 mg/kg
# [13] = Human PK prediction by allometric scaling; conditions: allometric scaling from rat parameters
# Cav1.2 channel = Cav1.2 channel (Homo sapiens, UniProt Q13936); test: Cav1.2 electrophysiology assay (IonWorks HT, CHO cells); format: cell-based; conditions: at >100 μM
# CYP3A4 = CYP3A4 (Homo sapiens, UniProt P08684); test: biochemical
# Sequence of CYP3A4 (P08684 whole entry): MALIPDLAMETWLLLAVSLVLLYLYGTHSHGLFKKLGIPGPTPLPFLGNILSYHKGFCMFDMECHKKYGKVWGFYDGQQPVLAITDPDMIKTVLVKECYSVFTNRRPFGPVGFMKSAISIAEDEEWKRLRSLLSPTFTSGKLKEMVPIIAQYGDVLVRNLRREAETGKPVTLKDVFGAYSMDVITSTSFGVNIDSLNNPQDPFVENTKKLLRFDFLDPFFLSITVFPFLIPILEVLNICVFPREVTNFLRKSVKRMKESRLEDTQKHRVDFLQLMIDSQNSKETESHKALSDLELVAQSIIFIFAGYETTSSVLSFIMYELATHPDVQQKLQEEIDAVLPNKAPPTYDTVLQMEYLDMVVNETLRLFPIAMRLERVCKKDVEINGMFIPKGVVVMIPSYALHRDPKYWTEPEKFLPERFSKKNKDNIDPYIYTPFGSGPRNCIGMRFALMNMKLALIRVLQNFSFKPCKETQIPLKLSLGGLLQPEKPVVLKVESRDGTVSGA
# CYP1A2 = CYP1A2 (Homo sapiens, UniProt P05177); test: Cytochrome P450 inhibition CYP1A2
# Sequence of CYP1A2 (P05177 whole entry): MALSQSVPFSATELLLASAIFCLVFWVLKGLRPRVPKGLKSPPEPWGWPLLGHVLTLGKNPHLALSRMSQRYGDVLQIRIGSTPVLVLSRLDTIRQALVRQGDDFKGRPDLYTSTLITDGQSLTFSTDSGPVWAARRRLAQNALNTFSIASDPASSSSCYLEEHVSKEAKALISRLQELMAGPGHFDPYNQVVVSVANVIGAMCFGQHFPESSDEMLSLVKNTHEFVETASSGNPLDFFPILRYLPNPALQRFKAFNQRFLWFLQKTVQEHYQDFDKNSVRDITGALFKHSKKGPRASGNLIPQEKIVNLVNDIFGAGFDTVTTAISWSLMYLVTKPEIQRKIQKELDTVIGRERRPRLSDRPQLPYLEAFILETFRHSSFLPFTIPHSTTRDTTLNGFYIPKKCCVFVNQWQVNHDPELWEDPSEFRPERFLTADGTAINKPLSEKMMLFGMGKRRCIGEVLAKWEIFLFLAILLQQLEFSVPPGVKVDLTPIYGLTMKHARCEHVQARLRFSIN
# [14] = Rat PK, compartmental analysis
# in vitro = conditions: human, microsomes
# [15] = tested on: Late stage gametocytes; oocysts in Anopheles stephensi mosquitoes; test: whole plant or invertebrate; format: cell-based
# [16] = Metabolic stability and metabolite profile in mouse liver microsomes; format: in vitro ADME
# P. berghei [17] = test: Peters' standard 4-day suppressive test
# [18] = Mammalian cell cytotoxicity; format: cell-based; conditions: human; HeLa cells, n=3; read-out: cytotoxicity median IC50
# Sigma 2 receptors = target: T2, Sigma 2 receptors (Homo sapiens, UniProt Q5BJF2); test: CEREP radioligand binding screen, Sigma 2
# T2 construct: CEREP
# T2 sequence (Q5BJF2 whole entry): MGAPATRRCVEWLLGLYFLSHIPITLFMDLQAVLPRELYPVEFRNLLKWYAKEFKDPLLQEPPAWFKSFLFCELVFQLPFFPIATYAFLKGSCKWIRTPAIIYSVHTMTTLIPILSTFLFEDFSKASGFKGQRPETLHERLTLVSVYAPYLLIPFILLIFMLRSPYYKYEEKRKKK
# [19] = In vitro intrinsic clearance, human liver microsomes (Chem Partners); format: in vitro ADME; conditions: human (H) liver microsomes
# Mouse micronucleus test = conditions: in vivo
# in vivo [20] = conditions: Sprague-Dawley, rat; for AUC(0-t) / Cmax: po
# [21] = target: T3, cardiac IKr (hERG) channel (Homo sapiens, UniProt Q12809); test: hERG electrophysiology assay (IonWorks HT, CHO cells); format: cell-based
# T3 construct: expressed in transfected cells; host or cells: CHO cells
# T3 sequence (Q12809 whole entry): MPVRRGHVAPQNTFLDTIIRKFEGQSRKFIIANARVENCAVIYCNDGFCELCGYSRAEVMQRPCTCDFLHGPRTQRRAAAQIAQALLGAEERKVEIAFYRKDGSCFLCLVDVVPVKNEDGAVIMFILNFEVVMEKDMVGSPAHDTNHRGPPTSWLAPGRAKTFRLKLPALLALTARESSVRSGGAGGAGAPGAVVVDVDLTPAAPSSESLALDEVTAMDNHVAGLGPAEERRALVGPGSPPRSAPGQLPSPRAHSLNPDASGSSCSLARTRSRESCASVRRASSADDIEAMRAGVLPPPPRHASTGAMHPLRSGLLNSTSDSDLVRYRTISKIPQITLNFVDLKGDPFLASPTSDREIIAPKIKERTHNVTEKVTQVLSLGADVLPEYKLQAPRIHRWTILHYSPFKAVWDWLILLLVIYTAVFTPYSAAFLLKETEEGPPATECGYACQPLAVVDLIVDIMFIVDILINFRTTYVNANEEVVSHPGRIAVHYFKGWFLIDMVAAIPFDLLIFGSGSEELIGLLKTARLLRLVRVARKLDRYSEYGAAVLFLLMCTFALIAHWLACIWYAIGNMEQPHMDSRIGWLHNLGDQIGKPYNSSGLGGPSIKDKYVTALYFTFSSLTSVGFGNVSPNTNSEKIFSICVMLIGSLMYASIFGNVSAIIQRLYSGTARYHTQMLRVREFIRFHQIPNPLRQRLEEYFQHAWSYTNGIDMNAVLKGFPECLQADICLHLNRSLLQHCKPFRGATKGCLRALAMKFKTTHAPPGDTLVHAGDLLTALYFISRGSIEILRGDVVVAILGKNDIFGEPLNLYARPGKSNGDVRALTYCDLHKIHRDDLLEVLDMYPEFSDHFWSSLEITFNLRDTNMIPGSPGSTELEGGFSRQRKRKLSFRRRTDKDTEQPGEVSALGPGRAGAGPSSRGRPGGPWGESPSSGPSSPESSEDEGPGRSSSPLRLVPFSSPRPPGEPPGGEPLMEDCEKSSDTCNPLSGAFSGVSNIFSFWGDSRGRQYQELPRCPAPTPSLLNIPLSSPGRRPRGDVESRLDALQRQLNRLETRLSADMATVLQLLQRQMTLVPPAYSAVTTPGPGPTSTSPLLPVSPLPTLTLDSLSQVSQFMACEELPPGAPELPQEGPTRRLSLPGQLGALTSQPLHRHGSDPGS
# [22] = tested on: P. falciparum clinical field isolates; test: microbe, parasite or virus in culture; format: cell-based; conditions: Plasmodium falciparum, read-out: Median IC50
# [23] = Rat PK iv 1 mg/kg (Chem Partners); conditions: in vivo
# [24] = rat, in vivo
# [25] = In vitro intrinsic clearance, rat liver microsomes (Chem Partners); format: in vitro ADME; conditions: rat (R) liver microsomes
compound,measurement,setting,value
FC1CCN(CCOc2ccc(C3CCC4(CC3)OOC3(OO4)C4CC5CC(C4)CC3C5)cc2)CC1 (stereo not shown) [Compound E209],IC50,[1],> 20 µM
same,Absorption rate constant Ka,[2]; PO 5 mg kg^−1,0.33 h⁻¹
same,bioavailability,"[2]; male, Beagle, plasma, oral, 5 mg kg^−1",40%
same,clearance,"[2]; male, Beagle, plasma, other: intravenous and oral, fitted together",1.1 L/h/kg
same,half-life at 1 µM,[3],13 h
same,IC50,Sigma 1 receptors,~0.2 µM
same,MTD,[4],300 mg/kg
same,Absorption rate constant Ka,[5]; PO 10 mg kg^−1,0.79 h⁻¹
same,bioavailability,"[5]; female, Swiss Outbred, plasma, oral, 10 mg kg^−1",82%
same,clearance,"[5]; female, Swiss Outbred, plasma, other: intravenous and oral, fitted together",4.3 L/h/kg
same,Microsome-Predicted EH,[6]; n=1,0.38
same,half-life at 1 µM,"[6]; n=1, read-out: Degradation half-life",2.88 h
same,microsomal CLint at 1 µM,"[6]; n=1, read-out: In vitro CLint",10 µL/min/mg
same,% Substrate Consumed,"[7]; rat liver microsomes with NADPH, 60 minutes",54%
same,Microsome-Predicted EH,"[7]; rat liver microsomes, substrate 1 µM",0.48
same,half-life at 1 µM,"[7]; rat liver microsomes, substrate 1 µM, read-out: Degradation half-life",0.8 h
same,microsomal CLint at 1 µM,"[7]; rat liver microsomes, substrate 1 µM, read-out: In vitro CLint",36 µL/min/mg
same,Microsome-Predicted EH,"[7]; rat liver microsomes, substrate 5 µM",0.45
same,half-life at 5 µM,"[7]; rat liver microsomes, substrate 5 µM, read-out: Degradation half-life",0.9 h
same,microsomal CLint at 5 µM,"[7]; rat liver microsomes, substrate 5 µM, read-out: In vitro CLint",32 µL/min/mg
same,In vivo (Pb) MSD (days) at 1 x 30 mg/kg,P. berghei [8],"26.3 days and 25.0 (15, 30, 30) (2 cures) days"
same,cure rate,P. berghei [8]; in vivo,66%
same,inhibitory activity,Nav1.5 channel,no inhibitory activity
same,loss of huRBC,[9],did not show a significant drug-dependent loss of huRBC
same,IC50,"[10]; DD2, strain Dd2 (chloroquine resistant), mean ± SD n=3",0.0077 ± 0.0015 µM
same,IC50,"[10]; HB3, strain HB3 (chloroquine sensitive), mean ± SD n=3",0.0042 ± 0.0008 µM
same,IC50,"[10]; NF54, strain NF54 (chloroquine sensitive), mean ± SD n=3",0.0052 ± 0.001 µM
same,IC50,"[10]; TM90C2B, strain TM90C2B (chloroquine resistant), mean ± SD n=3",0.0073 ± 0.0014 µM
same,IC50,"[10]; read-out: mean IC50 range, panel of 10 sensitive and multidrug-resistant P. falciparum isolates",0.0029 to 0.014 µM
same,IC50,"[10]; strain 7G8 (chloroquine resistant), mean ± SD n=3",0.0029 ± 0.0006 µM
same,IC50,"[10]; strain D6 (chloroquine sensitive), mean ± SD n=3",0.0085 ± 0.0016 µM
same,IC50,"[10]; strain FCB (chloroquine resistant), mean ± SD n=3",0.014 ± 0.0027 µM
same,IC50,"[10]; strain K1 (chloroquine resistant), mean ± SD n=3",0.0042 ± 0.0008 µM
same,IC50,"[10]; strain V1/S (chloroquine resistant), mean ± SD n=3",0.0042 ± 0.0008 µM
same,Lag phase,[11]; 10 × IC50,0 h
same,Log PRR,[11]; 10 × IC50,> 4.8
same,Slope,[11]; 10 × IC50,−0.098
same,PCT 99.9 %,"[11]; 10 × IC50, parasite clearance time",< 24 h
same,half-life,in vivo [12],4 h
same,Absorption rate constant Ka,[13],0.31 ^† h^−1
same,"Central clearance, CL",[13],0.41 l^ h^−1 kg^−1
same,"Inter-compartmental clearance 1, Q1",[13],0.45 L/h/kg
same,"Inter-compartmental clearance 2, Q2",[13],0.020 L/h/kg
same,inhibitory activity,Cav1.2 channel,no inhibitory activity
same,IC50,CYP3A4,> 20 µM
same,IC50,CYP1A2,> 20 µM
same,Absorption rate constant Ka,[14]; PO 9 mg kg^−1,0.31 h⁻¹
same,clearance,"[14]; male, Sprague-Dawley, plasma, other: intravenous and oral, fitted together",1.6 L/h/kg
same,microsomal CLint,in vitro,23 µL/min/mg
same,transmission-blocking activity (percentage of mosquitoes with no observed oocysts),[15],~60% and 90%
same,IC50,"[15]; Anopheles stephensi, read-out: IC50 (reduction in oocyst mean intensity)",0.0145 µM
same,% Substrate Consumed,"[16]; mouse liver microsomes with NADPH, 60 minutes",44%
same,Microsome-Predicted EH,"[16]; mouse liver microsomes, substrate 1 µM",0.22
same,half-life at 1 µM,"[16]; mouse liver microsomes, substrate 1 µM, read-out: Degradation half-life",2.2 h
same,microsomal CLint at 1 µM,"[16]; mouse liver microsomes, substrate 1 µM, read-out: In vitro CLint",13 µL/min/mg
same,Microsome-Predicted EH,"[16]; mouse liver microsomes, substrate 5 µM",0.25
same,half-life at 5 µM,"[16]; mouse liver microsomes, substrate 5 µM, read-out: Degradation half-life",2.48 h
same,microsomal CLint at 5 µM,"[16]; mouse liver microsomes, substrate 5 µM, read-out: In vitro CLint",17 µL/min/mg
same,parasite clearance,"P. berghei [17]; given orally, 4-day suppressive test",complete parasite clearance
same,estimated ED50,"P. berghei [17]; oral, after three doses, P. berghei infected mice",4 mg/kg
same,IC50,[18],2.85 µM
same,IC50,Sigma 2 receptors,~0.2 µM
same,CLint scaled,[19],3.48 L/h/kg
same,mouse micronucleus test result,Mouse micronucleus test,negative
same,NOAEL,in vivo [20]; female,50 mg/kg/day
same,AUC(0-t),"in vivo [20]; female, 50 mg/kg",14.8 µg·h/mL
same,Cmax,"in vivo [20]; female, 50 mg/kg",1.07 µg/mL
same,NOAEL,in vivo [20]; male,100 mg/kg/day
same,AUC(0-t),"in vivo [20]; male, 100 mg/kg",19.6 µg·h/mL
same,Cmax,"in vivo [20]; male, 100 mg/kg",1.2 µg/mL
same,IC50,[21],> 3.5 µM
same,IC50,[22],0.0157 µM
same,clearance,[23],0.306 L/h/kg
same,finding at 100 mg kg^−1,[24],body weight loss
same,tolerability,[24],not tolerated
same,CLint scaled,[25],4.2 L/h/kg
